Experimental data reported in patent publication US20020045191A1, “Inhibition of the SRC kinase family pathway as a method of treating HBV infection and hepatocellular carcinoma” (priority 2000, published 2002).

Experiments:
Pyk2 [1] = test: Pyk2 Y-402 phosphorylation immunoblot, Chang cells; type: cell-based, human; conditions: for HBx activation of Pyk2: 0.5 mM EGTA 2 h, 50 μM BAPTA-AM 2 h, 3 μM CsA 4 h
Protocol: FIG. 9. Chang cells or HepG2 cells were transfected with expression vectors pAdCMVX (HBx), pAdCMVXo (HBx−), pPKM, or empty vectors pAdCMV or pPRK5. (A) Chang cells were treated with 50 μM BAPTA-AM for 2 h, equal protein amounts resolved by gel-electrophoresis and immunoblotted with antibodies to Pyk2 or activated Y-402 phosphorylated Pyk2.
(§1) TPA treatment was for […] using 20 ng/ml. […] (C) Chang cells transfected with vector or pAdCMVX were treated 2h with 0.5 mM or 3 mM EGTA, and Pyk2 examined by immunoblot. (D) HepG2 cells were transfected with HBV, HBx(−) HBV genomic DNA or vector, complemented by 2 μg plasmid pAdCMVX. Cytoplasmic HBV core particles were isolated from equal numbers of cells (Klein, et al. 1997, EMBOJ 18: 5019-5027) and viral DNA replication intermediates detected by Southern blot as described (Klein, et al. 1997, EMBOJ 18: 5019-5027). The smear represents 4 kb (mature double-stranded DNA) to 2 kb (first-strand single-stranded DNA). Northern blot analysis was carried out using poly(A+) RNA extracted from equal numbers of cells. (E) Southern and Northern blot analyses were performed on HepG2 cells transfected as above with or without pPKM or PPRKS. Typical experiments are shown.
Studies determined whether HBx acts on intracellular calcium to activate Pyk2. […] HBx activation of Pyk2 therefore involves cytosolic calcium action. Studies next determined whether HBx acts on calcium channels in the endoplasmic reticulum (ER), mitochondria or plasma membrane (PM) for its activity.

HBV [2] = test: HBV DNA replication in cytoplasmic core particles, Southern blot, HepG2 cells; type: cell-based, hepatitis B virus; conditions: for increase of reverse transcription and DNA replication of (HBx−)HBV: HepG2 cells, 4 d, valinomycin 1 nM, thapsigargin 20 nM
Text: Cytoplasmic viral core particles were isolated and HBV DNA replication and mRNA levels detected by Southern and Northern blot hybridization.
The requirement for cytosolic calcium and HBx activation of Pyk2 in HBV replication was examined. […] HepG2 cells were transfected with vector alone, wild type HBV genomic DNA, or HBx(−) genomic DNA, cytoplasmic viral core particles, the structures in which viral DNA replication takes place, were isolated and the level of viral DNA replication was examined (FIG. 9D).
The requirement for cytosolic calcium in HBx-dependent viral replication was investigated.

HBV [3] = test: HBV mRNA levels, Northern blot, HepG2 cells; type: cell-based, hepatitis B virus; conditions: for cytoplasmic levels of HBV pgRNA and HBsAg mRNAs: HepG2 cells, 4 d, valinomycin 1 nM, thapsigargin 20 nM
Protocol: as §1
FIG. 10. […] Products were resolved by electrophoresis and detected by autoradiography. Typical results are shown.
(§2) FIG. 11. (A) HepG2 cells were with HBV or HBx(−) HBV genomic DNA. At 24 h post-transfection cells were treated with 1 nM valinomycin (val.) or 20 nM thapsigargin (thap.) for 4 d, cytoplasmic core particles were isolated from equal numbers of cells and viral replication examined by Southern blot hybridization. HBV transcription was analyzed by Northern blot hybridization. (B) Nontransfected HepG2 cells 5were treated with valinomycin or thapsigargin as above, and the abundance of Pyk2 or activated Pyk2 Y-402 phosphorylation determined by immunoblot
The requirement for cytosolic calcium and HBx activation of Pyk2 in HBV replication was examined. […]
Studies next determined whether HBx activity can be replaced by ionophoric agents that increase cytosolic calcium. […]

Pyk2 [4] = test: Pyk2 activity (Y-402 phosphorylation immunoblot) in nontransfected HepG2 cells; type: cell-based, human; conditions: valinomycin 1 nM, thapsigargin 20 nM
Protocol: as §2
Studies next determined whether HBx activity can be replaced by ionophoric agents that increase cytosolic calcium. Cells were transfected with plasmids expressing wild type HBV or HBx(−) genomes and treated for 4 d with low, nontoxic levels of calcium mobilizing agents valinomycin (1 nM) or thapsigargin (20 nM). Reverse transcription and DNA replication of (HBx−)HBV were increased 20 fold by valinomycin to wild type (HBx+) levels, and 10 fold by thapsigargin (FIG. 11A).

c-Src = c-Src immunoprecipitation and in vitro kinase assay (auto-phosphorylation, enolase trans-phosphorylation), NIH 3T3 cells; type: cell-based; conditions: serum-starved NIH 3T3 cells, PDGF (100 ng/ml) for 5 minutes
Protocol: FIG. 1. Serum-starved NIH 3T3 cells were infected with AdCMV-X or -Xo viruses, c-Src or c-Fyn was immunoprecipitated, the pellet washed and assayed by incubation with the substrate enolase and [γ-^32P] ATP. Products were resolved by SDS-10%-PAGE then visualized and quantitiated by PhosphorImage analysis.
c-Src (FIG. 1A) or c-Fyn (FIG. 1B) were immunoprecipitated 8 h p.i. from NIH 3T3 cell lysates expressing HBx or HBxo. Where indicated, cells were incubated with PDGF (100 ng/ml) for 5 min.
Src kinase assays were carried out essentially as described (Kypta et al., 1990, Cell 62:481-492). Briefly, NIH 3T3 or Chang cells were lysed in buffer containing 1% NP-40, 150 mM NaCl, 20 mM Tris HCl pH 8, 2.5 mM EDTA, 1 mM Na3VO4, 50 mM NaF, 1 mM PMSF, 10 μg/ml aprotinin, and 10 μg/ml leupeptin. Src and Fyn kinase activity were measured by immunoprecipitating either Src (1 μg anti-Src antibodies) or Fyn (1 μg/ml anti-Fyn antibodies) from equal amounts of cell lysate. […] For the reactions containing the Src peptide substrate, TCA was added to a final concentration of 20%, an aliquot was spotted onto phosphocellulose paper (UBI), the filters were washed 3×5 minutes in 0.75% phosphoric acid and once in acetone, dried and analyzed by scintillation counting. […]

[5] = Chang cells, high concentration of EGTA (3 mM)

CC(=O)OCOC(=O)CN(CC(=O)OCOC(C)=O)c1ccccc1OCCOc1ccccc1N(CC(=O)OCOC(C)=O)CC(=O)OCOC(C)=O [BAPTA-AM]
HBx activation of Pyk2 (Pyk2 [1]; Chang cells): prevented | HBx-induced Pyk2 phosphorylation at Y-402 (Pyk2 [1]; HBx transfected Chang cells, 50 μM (2 times IC50) for 2 h): prevented | Pyk2 levels (Pyk2 [1]; HBx transfected Chang cells, 50 μM for 2 h): without altering | impairment of HBV viral DNA replication (HBV [2]; HBV genome transfected HepG2 cells, low levels of BAPTA-AM (2.5 μM or 25 μM) for 4 d): 10 fold | HBV mRNA levels (HBV [3]; HBV genome transfected HepG2 cells, low levels of BAPTA-AM for 4 d): without strongly reducing

O=C(O)CN(CCOCCOCCN(CC(=O)O)CC(=O)O)CC(=O)O [EGTA]
TPA activation of Pyk2 phosphorylation (Pyk2 [1]; [5]): did not block | activation of Pyk2 by HBx (Pyk2 [1]; [5]): partially inhibited | HBx activation of Pyk2 (Pyk2 [1]; Chang cells): no effect

C/C=C(/C)C(=O)O[C@H]1C(C)=C2[C@H]([C@@H]1OC(=O)CCCCCCC)[C@@](C)(OC(C)=O)C[C@H](OC(=O)CCC)[C@@]1(O)[C@H]2OC(=O)[C@@]1(C)O [thapsigargin]
increase of reverse transcription and DNA replication of (HBx−)HBV (HBV [2]): 10 fold | cytoplasmic levels of HBV pgRNA and HBsAg mRNAs (HBV [3]): Neither agent increased | stimulation of Pyk2 activity (Pyk2 [4]): 3 fold

CC(C)[C@@H]1NC(=O)[C@H](C)OC(=O)[C@@H](C(C)C)NC(=O)[C@@H](C(C)C)OC(=O)[C@H](C(C)C)NC(=O)[C@H](C)OC(=O)[C@@H](C(C)C)NC(=O)[C@@H](C(C)C)OC(=O)[C@H](C(C)C)NC(=O)[C@H](C)OC(=O)[C@@H](C(C)C)NC(=O)[C@@H](C(C)C)OC1=O [valinomycin]
increase of reverse transcription and DNA replication of (HBx−)HBV (HBV [2]): 20 fold | cytoplasmic levels of HBV pgRNA and HBsAg mRNAs (HBV [3]): Neither agent increased | stimulation of Pyk2 activity (Pyk2 [4]): 5 fold

PDGF
activation of c-Src (auto- and trans-phosphorylation) (c-Src): 3-4 fold
